# How the values were obtained:
# wild-type BRAF = test system: wild-type BRAF; set-up: method as in doi:10.1016/S1359-6349(10)71810-3; settings: preclinical studies; cited from earlier work
# [1] = test system: patients with relapsed or refractory advanced solid tumors; experiment: phase 1 safety: adverse events (CTCAE v4.03), safety population; format: in vivo, human; settings: for Fatal serious adverse event, MedDRA preferred term: patient
# Description: Treatment was to be continued until disease progression, unacceptable toxicity, or the patient discontinued for any other reason, for a maximum duration of 12 months. Treatment could be continued beyond 12 months if it was determined that a patient would derive benefit from such continued therapy.
# (§1) Adverse events were coded using the Medical Dictionary for Regulatory Activities (MedDRA) Version 19.0 and were graded according to the National Cancer Institute (NCI) Common Terminology Criteria (CTC) for adverse events (CTCAE) (Version 4.03). The assessment period for treatment emergent adverse events (TEAEs) was from the first dose of study treatment to 30 days after the last dose of study medication, or until the start of subsequent antineoplastic therapy, whichever occurred first. Following baseline evaluation, response was assessed by investigators every two cycles by computed tomography or magnetic resonance imaging according to Response Evaluation Criteria in Solid Tumors (version 1.1).
# (§2) The safety population was defined as all patients who received any amount of tovorafenib. The DLT-evaluable population was defined as all patients in the dose escalation phase of the study who either experienced DLT during cycle 1 or who completed at least 75% of the planned doses and had sufficient follow-up data to allow the investigators and sponsor to determine whether DLT had occurred. […] The PK-evaluable population included all patients who had sufficient dosing data and concentration–time data to permit calculation of PK parameters.
# [2] = test system: relapsed or refractory advanced solid tumors, melanoma; experiment: response by investigator assessment (RECIST 1.1); format: in vivo, human
# Description: as §1, §2
# [3] = test system: neural progenitor cells transformed with KIAA1549-BRAF fusion protein; set-up: method as in PMID 28082416; settings: cited from earlier work
# [4] = dose expansion Cohort 1, BRAF+ Naïve, Q2D n = 16
# [5] = dose expansion Cohort 2, BRAF+ Previously treated, Q2D n = 6
# [6] = dose expansion Cohort 3, NRAS+ Naïve, Q2D n = 14
# [7] = dose expansion Cohort 4, NRAS + Previously treated, Q2D n = 1
# [8] = dose expansion Cohort 5, BRAF/NRAS WT Naïve, Q2D n = 6
# [9] = dose expansion Cohort 6, BRAF/NRAS WT Previously, Q2D n = 9
# [10] = dose expansion Cohort 9, NRAS+ Naïve, QW n = 17
# [11] = dose expansion, Q2D n=68 (melanoma cohorts, PK cohort, unknown)
compound,measurement,setting,value
C[C@@H](NC(=O)c1ncnc(N)c1Cl)c1ncc(C(=O)Nc2cc(C(F)(F)F)c(Cl)cn2)s1 [tovorafenib],IC50,wild-type BRAF,10.1 nM
same,"Fatal serious adverse event, MedDRA preferred term","[1]; dose escalation, 20 mg Q2D, study day of death 23, Not related",Respiratory failure
same,"Fatal serious adverse event, MedDRA preferred term","[1]; dose escalation, 80 mg Q2D, study day of death 44, Not related",Colon cancer
same,"Fatal serious adverse event, MedDRA preferred term","[1]; dose escalation, 280 mg Q2D, study day of death 28, Related",Respiratory failure
same,"Fatal serious adverse event, MedDRA preferred term","[1]; dose escalation, 600 mg QW, study day of death 9, Not related",Colon cancer metastatic
same,"Fatal serious adverse event, MedDRA preferred term","[1]; dose escalation, 600 mg QW, study day of death 28, Not related",Pancreatic carcinoma
same,"Fatal serious adverse event, MedDRA preferred term","[1]; dose escalation, 800 mg QW, study day of death 31, Not related",Cardio-respiratory arrest
same,on-study deaths,[1]; dose expansion phase (7%),7 patients
same,"Fatal serious adverse event, MedDRA preferred term","[1]; dose expansion, Q2D, study day of death 16, Not related",Small intestinal obstruction
same,"Fatal serious adverse event, MedDRA preferred term","[1]; dose expansion, Q2D, study day of death 26, Not related",Sepsis
same,"Fatal serious adverse event, MedDRA preferred term","[1]; dose expansion, Q2D, study day of death 43, Not related",Pneumonia
same,"Fatal serious adverse event, MedDRA preferred term","[1]; dose expansion, Q2D, study day of death 61, Not related",Metastatic malignant melanoma
same,"Fatal serious adverse event, MedDRA preferred term","[1]; dose expansion, Q2D, study day of death 67, Not related",Malignant melanoma
same,"Fatal serious adverse event, MedDRA preferred term","[1]; dose expansion, Q2D, study day of death 81, Not related",Metastatic malignant melanoma
same,drug-related TEAE fatigue,"[1]; human, in vivo",42%
same,drug-related TEAE maculo-papular rash,"[1]; human, in vivo",36%
same,drug-related grade 3 or higher anemia,"[1]; human, in vivo",8%
same,drug-related grade 3 or higher hyperbilirubinemia,"[1]; human, in vivo",10%
same,drug-related grade 3 or higher maculo-papular rash,"[1]; human, in vivo",9%
same,generalized rash leading to dose reduction,"[1]; human, in vivo",3%
same,grade 3 or higher anemia,"[1]; human, in vivo",14%
same,grade 3 or higher maculo-papular rash,"[1]; human, in vivo",8%
same,maculo-papular rash leading to dose reduction,"[1]; human, in vivo",5%
same,maculo-papular rash resulting in permanent discontinuation,"[1]; human, in vivo",3%
same,sepsis resulting in permanent discontinuation,"[1]; human, in vivo",3%
same,squamous cell carcinoma of skin reported as TEAE,"[1]; human, in vivo",< 1%
same,on-study deaths deemed treatment related,"[1]; respiratory failure, 280 mg Q2D dose escalation cohort",one
same,on-study deaths,"[1]; whole study, 149 patients",13
same,median PFS,"[2]; BRAF mutation-positive, RAF and MEK inhibitor-naïve cohort, 95% CI 1.9–14.3",5.7 months
same,sustained PFS in an individual patient,"[2]; BRAF mutation-positive, RAF and MEK inhibitor-naïve cohort, in response and on treatment at data cutoff",45 months
same,duration of stable disease in one patient,"[2]; NRAS-mutated melanoma, cohort 7",42 months
same,best response of stable disease,"[2]; Q2D dose escalation, 5 of 22 evaluable patients",23%
same,responses,"[2]; Q2D dose escalation, 22 evaluable patients",no responses
same,Objective response rate,"[2]; Q2D expansion phase, 10 of 68 evaluable patients, 95% CI 7–25",15%
same,median duration of response,"[2]; Q2D expansion, 68 evaluable patients",6.0 months
same,median progression-free survival (PFS),"[2]; Q2D expansion, 68 evaluable patients, 95% CI 1.8–3.6",1.9 months
same,partial responses,"[2]; QW dose escalation, 2 in 14 evaluable patients (endometrial cancer 600 mg, thyroid cancer 800 mg)",14%
same,best response of stable disease,"[2]; QW dose expansion, 9 of 17 evaluable patients",53%
same,responses,"[2]; QW dose expansion, 17 evaluable patients, NRAS mutation-positive melanoma naïve to RAF and MEK inhibitors",no responses
same,responses (partial),"[2]; cohort 1, BRAF mutation-positive melanoma, RAF and MEK inhibitor-naïve, Q2D, 8 of 16",50%
same,responses,"[2]; cohort 2, BRAF mutation-positive, RAF and MEK inhibitor-previously treated, Q2D, 1 of 6",17%
same,responses,"[2]; cohort 3, NRAS mutation-positive, RAF and MEK inhibitor-naïve, Q2D, 1 of 14",7%
same,Best overall response: Complete response,"[2]; dose escalation, Q2D n = 22",0 n (%)
same,Best overall response: Partial response,"[2]; dose escalation, Q2D n = 22",0 n (%)
same,Best overall response: Progressive disease,"[2]; dose escalation, Q2D n = 22",17 (77) n (%)
same,Best overall response: Stable disease,"[2]; dose escalation, Q2D n = 22",5 (23) n (%)
same,Objective response rate,"[2]; dose escalation, Q2D n = 22",0 n (%)
same,Best overall response: Complete response,"[2]; dose escalation, QW n = 14",0 n (%)
same,Best overall response: Partial response,"[2]; dose escalation, QW n = 14",2 (14) n (%)
same,Best overall response: Progressive disease,"[2]; dose escalation, QW n = 14",8 (57) n (%)
same,Best overall response: Stable disease,"[2]; dose escalation, QW n = 14",4 (29) n (%)
same,Objective response rate,"[2]; dose escalation, QW n = 14",2 (14) n (%)
same,Best overall response: Complete response,"[2]; dose escalation, Total n=36",0 n (%)
same,Best overall response: Partial response,"[2]; dose escalation, Total n=36",2 (6) n (%)
same,Best overall response: Progressive disease,"[2]; dose escalation, Total n=36",25 (69) n (%)
same,Best overall response: Stable disease,"[2]; dose escalation, Total n=36",9 (25) n (%)
same,Objective response rate,"[2]; dose escalation, Total n=36",2 (6) n (%)
same,Best overall response: Complete response,[2]; [4],0 n (%)
same,Best overall response: Partial response,[2]; [4],8 (50) n (%)
same,Best overall response: Progressive disease,[2]; [4],6 (38) n (%)
same,Best overall response: Stable disease,[2]; [4],2 (13) n (%)
same,Objective response rate,[2]; [4],8 (50) n (%)
same,Best overall response: Complete response,[2]; [5],0 n (%)
same,Best overall response: Partial response,[2]; [5],1 (17) n (%)
same,Best overall response: Progressive disease,[2]; [5],2 (33) n (%)
same,Best overall response: Stable disease,[2]; [5],3 (50) n (%)
same,Objective response rate,[2]; [5],1 (17) n (%)
same,Best overall response: Complete response,[2]; [6],0 n (%)
same,Best overall response: Partial response,[2]; [6],1 (7) n (%)
same,Best overall response: Progressive disease,[2]; [6],9 (64) n (%)
same,Best overall response: Stable disease,[2]; [6],4 (29) n (%)
same,Objective response rate,[2]; [6],1 (7) n (%)
same,Best overall response: Complete response,[2]; [7],0 n (%)
same,Best overall response: Partial response,[2]; [7],0 n (%)
same,Best overall response: Progressive disease,[2]; [7],1 (100) n (%)
same,Best overall response: Stable disease,[2]; [7],0 n (%)
same,Objective response rate,[2]; [7],0 n (%)
same,Best overall response: Complete response,[2]; [8],0 n (%)
same,Best overall response: Partial response,[2]; [8],0 n (%)
same,Best overall response: Progressive disease,[2]; [8],5 (83) n (%)
same,Best overall response: Stable disease,[2]; [8],1 (17) n (%)
same,Objective response rate,[2]; [8],0 n (%)
same,Best overall response: Complete response,[2]; [9],0 n (%)
same,Best overall response: Partial response,[2]; [9],0 n (%)
same,Best overall response: Progressive disease,[2]; [9],6 (67) n (%)
same,Best overall response: Stable disease,[2]; [9],3 (33) n (%)
same,Objective response rate,[2]; [9],0 n (%)
same,Best overall response: Complete response,[2]; [10],0 n (%)
same,Best overall response: Partial response,[2]; [10],0 n (%)
same,Best overall response: Progressive disease,[2]; [10],8 (47) n (%)
same,Best overall response: Stable disease,[2]; [10],9 (53) n (%)
same,Objective response rate,[2]; [10],0 n (%)
same,Best overall response: Complete response,[2]; [11],0 n (%)
same,Best overall response: Partial response,[2]; [11],10 (15) n (%)
same,Best overall response: Progressive disease,[2]; [11],37 (54) n (%)
same,Best overall response: Stable disease,[2]; [11],21 (31) n (%)
same,Objective response rate,[2]; [11],10 (15) n (%)
same,Best overall response: Complete response,"[2]; dose expansion, QW n=17",0 n (%)
same,Best overall response: Partial response,"[2]; dose expansion, QW n=17",0 n (%)
same,Best overall response: Progressive disease,"[2]; dose expansion, QW n=17",8 (47) n (%)
same,Best overall response: Stable disease,"[2]; dose expansion, QW n=17",9 (53) n (%)
same,Objective response rate,"[2]; dose expansion, QW n=17",0 n (%)
same,Best overall response: Complete response,"[2]; dose expansion, Total n=85",0 n (%)
same,Best overall response: Partial response,"[2]; dose expansion, Total n=85",10 (12) n (%)
same,Best overall response: Progressive disease,"[2]; dose expansion, Total n=85",45 (53) n (%)
same,Best overall response: Stable disease,"[2]; dose expansion, Total n=85",30 (35) n (%)
same,Objective response rate,"[2]; dose expansion, Total n=85",10 (12) n (%)
same,paradoxical activation of ERK signaling,[3],not to trigger paradoxical activation of ERK signaling
